Data taken from patent US20100028298A1 (priority 2006, published 2010).
Numbered stars: 1 amine (or outer) side, 2 acyl side, 3 side chain; on linkers, the order of the positions; unused ones are H or OH. Bridge positions count the residues as written; N and C are the ends. Square brackets hold non-standard residues; d marks the D form. Peptide text beside a SMILES is read from it. X1 = CC1CC(C2=NC(C(=O)[*:2])CS2)N1[*:1]; NMeV = CN[CH](C(=O)O)C(C)C; X2 = O=C(C(O)CO[*:2])[*:1]; Pip = O=C(O)[CH]1CCCCN1; Dhb = C/C=C(\N)C(=O)O

How the values were obtained:
[1] = system: interferon beta activity in MXRage cells; assay: Cell-based virus-free type I interferon activity test, Mx-RAGE fibroblasts with eGFP reporter, flow cytometry, with interferon beta; set-up: species or system murine; settings: interferon beta standard curve, vioprolide A 50 ng/ml, FIG. 4 right panel
[2] = system: Vesicular stomalitis virus (VSV, ssRNA negative); assay type: cell-based; settings: MDBK cells, rhIFN-α2b alone and with 31 and 167 ng/ml vioprolide A, FIG. 5
[3] = system: Herpes simplex virus strain 1 (HSV-1, dsDNA); assay: Antiviral effect on HSV-1, cytopathic effect on Vero cells; assay type: cell-based; settings: Vero cells infected with 10^4 PFU/ml HSV-1, different concentrations of vioprolide A alone, FIG. 6
[4] = system: interferon alpha activity in MXRage cells; assay: Cell-based virus-free type I interferon activity test, Mx-RAGE fibroblasts with eGFP reporter, flow cytometry, with interferon alpha; set-up: species or system murine
[5] = system: human cervical carcinoma derived cell line WISH; assay: Antiproliferative activity on WISH cells; assay type: cell-based; settings: in the presence of rhIFN-α2b, FIG. 7
Description: FIG. 7: The antiproliferative effect of vioprolide A. The proliferation of WISH cells was tested at different concentrations of vioprolide A alone (grey) and in the present of IFN-α2b (black).
Further, the antiproliferative effect of vioprolide A has been determined. Using standard assays, the antiproliferative activity was evaluated with human cervical carcinoma derived cell line WISH.

C/C=C1\NC(=O)C2CSC(=N2)C2CC(C)N2C(=O)C(CC(C)C)NC(=O)C(C)NC(=O)C(O)COC(=O)C(C(C)C)N(C)C(=O)C(C(C)O)NC(=O)C2CCCCN2C1=O (stereo not shown) [vioprolide A] (AL[X1][Dhb][Pip]T[NMeV]; linker N-C via X2; configuration not given here)
increase of GFP positive cells [1]: remarkable increase
anti-viral activity of IFN on VSV (cytopathic effect) [2]: able to enhance the anti-viral activity of IFN on VSV
anti-viral activity on HSV-1 (cytopathic effect) [3]: anti-viral activity
increase of GFP positive cells ([4]; interferon alpha standard curve, vioprolide A 50 ng/ml, FIG. 4 left panel): remarkable increase
reduction of the amount of interferon alpha to obtain the same percent of GFP positive cells ([4]; vioprolide A 50 ng/ml, FIG. 4 left panel): about 10 fold
increase of GFP positive cells with vioprolide plus interferon type I compared to interferon type I alone ([4]; vioprolide A 0.2 to 400 ng/ml, serial two-fold dilutions, FIG. 3): ≤ 4 fold
effect on cell growth inhibition [5]: additive effect
